{"source": "patent US20230058961A1", "about": "“SUBSTITUTED HETEROCYCLICS WITH THERAPEUTIC ACTIVITY IN HIV” (New York Blood Center, Inc., priority 2019, published 2023)", "key": {"[1]": {"test_system": "pseudovirus HIV-1 HXB2", "assay": "organism not typed", "assay_type": "cell-based", "conditions": "anti-HIV-1 activity, single-cycle assay, TZM-bl cells, pseudovirus HIV-1 HXB2, read-out: IC50"}, "[2]": {"test_system": "TZM-bl cells", "conditions": "human, 3 days", "procedure": "(§1) The anti-HIV-1 activity was assessed in a single-cycle assay by infecting TZM-bl indicator cells with the pseudovirus HIV-1 HXB2 according to established procedures (F. Curreli, Y. D. Kwon, D. S. Belov, R. R. Ramesh, A. V. Kurkin, A. Altieri, P. D. Kwong, A. K. Debnath, J Med Chem 2017, 60, 3124-3153; which is incorporated herein by reference for all that it teaches about the conduct and interpretation of the assay).\n(§2) The cytotoxicity of the small polycyclic molecules in TZM-bl cells was determined by using the colorimetric method CellTiter 96® AQueous One Solution Cell Proliferation Assay (MTS) (Promega) following the manufacturer's instructions. Briefly, TZM-bl cells were platted in a 96-well tissue culture plate at 1×10^4/well and cultured at 37° C. Following overnight incubation, the cells were incubated with 100 μl of the compounds at graded concentrations and cultured for 3 days. The MTS reagent was added to the cells and incubated for 4 h at 37° C. The absorbance was recorded at 490 nm."}, "[3]": {"assay": "in vitro", "conditions": "human", "procedure": "as §1, §2"}, "[4]": {"conditions": "Human immunodeficiency virus 1, HXB2, TZM-bl"}, "[5]": {"conditions": "CC50, cytotoxicity, TZM-bl cells, MTS, 3 days"}}, "data": [{"compound": "COc1cc(-c2ccc(C(=O)NC(CN)c3nc(CO)cs3)[nH]2)ccn1", "note": "(stereo not drawn) [Compound 48, N-(2-Amino-1-(4-(hydroxymethyl)thiazol-2-yl)ethyl)-5-(2-methoxypyridin-4-yl)-1H-pyrrole-2-carboxamide]", "values": [{"measurement": "IC50", "setting": "[1]", "value": "> 11", "unit": "µM"}, {"measurement": "CC50", "setting": "[2]", "value": "> 133", "unit": "µM"}]}, {"compound": "Cc1cc(-c2ccc(C(F)(F)F)cn2)[nH]c1C(=O)NC(c1ncc(CO)s1)C(C)(C)N", "note": "(stereo not drawn) [Compound 12, N-(2-Amino-1-(5-(hydroxymethyl)thiazol-2-yl)-2-methylpropyl)-3-methyl-5-(5-(trifluoro-methyl)pyridin-2-yl)-1H-pyrrole-2-carboxamide]", "values": [{"measurement": "CC50", "setting": "[2]", "value": "37.5 ± 2.2", "unit": "µM"}]}, {"compound": "NCC(NC(=O)c1ccc(-c2ncc(Cl)cn2)[nH]1)c1nc(CO)cs1", "note": "(stereo not drawn) [Compound 45, N-(2-Amino-1-(4-(hydroxymethyl)thiazol-2-yl)ethyl)-5-(5-chloropyrimidin-2-yl)-1H-pyrrole-2-carboxamide]", "values": [{"measurement": "IC50", "setting": "[1]; [4]", "value": "> 10", "unit": "µM"}, {"measurement": "IC50", "setting": "[1]", "value": "> 15.8", "unit": "µM"}, {"measurement": "CC50 at 3 days", "setting": "[3]; CC50", "value": "> 66", "unit": "µM"}]}, {"compound": "Cc1cc(-c2ccc(Cl)cn2)[nH]c1C(=O)NC(CN)c1ncc(CO)s1", "note": "(stereo not drawn) [Compound 3, N-(2-Amino-1-(5-(hydroxymethyl)thiazol-2-yl)ethyl)-5-(5-chloropyridin-2-yl)-3-methyl-1H-pyrrole-2-carboxamide]", "values": [{"measurement": "IC50", "setting": "[1]; [4]", "value": "1.2 ± 0.1", "unit": "µM"}, {"measurement": "CC50 at 3 days", "setting": "[3]; CC50", "value": "98.3 ± 4", "unit": "µM"}]}, {"compound": "NCC(NC(=O)c1ccc(-c2ccc(C(F)(F)F)nc2)[nH]1)c1nc(CO)cs1", "note": "(stereo not drawn) [Compound 41, N-(2-Amino-1-(4-(hydroxymethyl)thiazol-2-yl)ethyl)-5-(6-(trifluoromethyl)pyridin-3-yl)-1H-pyrrole-2-carboxamide]", "values": [{"measurement": "IC50", "setting": "[1]; [4]", "value": "> 10", "unit": "µM"}, {"measurement": "IC50", "setting": "[1]", "value": "12.7 ± 2.8", "unit": "µM"}, {"measurement": "CC50 at 3 days", "setting": "[3]; CC50", "value": "> 122", "unit": "µM"}, {"measurement": "CC50 at 3 days", "setting": "[3]; [5]", "value": "> 100", "unit": "µM"}]}, {"compound": "Cc1ccc(-c2ccc(C(=O)NC(CN)c3nc(CO)cs3)[nH]2)nc1", "note": "(stereo not drawn) [Compound 19, N-(2-Amino-1-(4-(hydroxymethyl)thiazol-2-yl)ethyl)-5-(5-methylpyridin-2-yl)-1H-pyrrole-2-carboxamide]", "values": [{"measurement": "IC50", "setting": "[1]", "value": "9.6 ± 1.2", "unit": "µM"}, {"measurement": "CC50 at 3 days", "setting": "[3]; CC50", "value": "> 140", "unit": "µM"}, {"measurement": "CC50 at 3 days", "setting": "[3]; [5]", "value": "> 100", "unit": "µM"}]}, {"compound": "NCC(NC(=O)c1ccc(-c2ccc(C(F)(F)F)cn2)[nH]1)c1cnc(CO)s1", "note": "(stereo not drawn) [Compound 57, N-(2-Amino-1-(2-(hydroxymethyl)thiazol-5-yl)ethyl)-5-(5-(trifluoromethyl)pyridin-2-yl)-1H-pyrrole-2-carboxamide]", "values": [{"measurement": "IC50", "setting": "[1]; [4]", "value": "2.1 ± 0.4", "unit": "µM"}, {"measurement": "CC50 at 3 days", "setting": "[3]; CC50", "value": "> 122", "unit": "µM"}]}, {"compound": "NCC(NC(=O)c1ccc(-c2ccc(C(F)(F)F)cn2)[nH]1)c1nccs1", "note": "(stereo not drawn) [Compound 37, N-(2-Amino-1-(thiazol-2-yl)ethyl)-5-(5-(trifluoromethyl)pyridin-2-yl)-1H-pyrrole-2-carboxamide]", "values": [{"measurement": "IC50", "setting": "[1]; [4]", "value": "2 ± 0.2", "unit": "µM"}, {"measurement": "CC50 at 3 days", "setting": "[3]; CC50", "value": "89.3 ± 1", "unit": "µM"}]}, {"compound": "NCC(NC(=O)c1ccc(-c2ccc(C(F)(F)F)cn2)[nH]1)c1nc(CO)cs1", "note": "(stereo not drawn) [Compound 21, N-(2-Amino-1-(4-(hydroxymethyl)thiazol-2-yl)ethyl)-5-(5-(trifluoromethyl)pyridin-2-yl)-1H-pyrrole-2-carboxamide]", "values": [{"measurement": "IC50", "setting": "[1]", "value": 0.5, "unit": "µM"}, {"measurement": "CC50 at 3 days", "setting": "[3]; CC50", "value": "96 ± 6", "unit": "µM"}]}, {"compound": "NCC(NC(=O)c1ccc(-c2ccc(Cl)cn2)[nH]1)c1cnc(CO)s1", "note": "(stereo not drawn) [Compound 59, N-(2-Amino-1-(2-(hydroxymethyl)thiazol-5-yl)ethyl)-5-(5-chloropyridin-2-yl)-1H-pyrrole-2-carboxamide]", "values": [{"measurement": "IC50", "setting": "[1]", "value": "~26", "unit": "µM"}, {"measurement": "CC50 at 3 days", "setting": "[3]; CC50", "value": "> 106", "unit": "µM"}]}, {"compound": "NCC(NC(=O)c1ccc(-c2ccc(C(F)(F)F)cn2)[nH]1)c1ncc(CO)s1", "note": "(stereo not drawn) [Compound 5, N-(2-Amino-1-(5-(hydroxymethyl)thiazol-2-yl)ethyl)-5-(5-(trifluoromethyl)pyridin-2-yl)-1H-pyrrole-2-carboxamide]", "values": [{"measurement": "IC50", "setting": "[1]; [4]", "value": "< 1", "unit": "µM"}, {"measurement": "IC50", "setting": "[1]", "value": 0.96, "unit": "µM"}, {"measurement": "CC50 at 3 days", "setting": "[3]; CC50", "value": "> 122", "unit": "µM"}]}, {"compound": "NCC(NC(=O)c1ccc(-c2ccc(C(F)(F)F)cn2)[nH]1)c1nc(CO)cs1", "note": "(stereo not drawn) [Compound 22, N-(2-Amino-1-(4-(hydroxymethyl)thiazol-2-yl)ethyl)-5-(5-(trifluoromethyl)pyridin-2-yl)-1H-pyrrole-2-carboxamide]", "values": [{"measurement": "CC50", "setting": "[2]", "value": "124 ± 7", "unit": "µM"}]}]}
